Read-outs that look alike come from different tables or passages of the source.
Legend:
Format in all cases: cell-based
Human AR = Human AR (Homo sapiens (Human), UniProt P10275); test: AR antagonist assay (GRE-LUC luciferase, transfected HEK-293 cells, with 0.1 nM R1881); conditions: for IC50: with 0.1 nM R1881; for inhibition at 1 µM: HEK293
Procedure: Human AR cDNA cloned into pCMV vector, GRE-LUC, and CMV-renilla-LUC were used to transfect cells. HEK-293 cells (ATCC) were plated at 120,000 cells per well of a 24 well plate in DME+5% csFBS (Fisher Scientific, Waltham, Mass.). The cells were transfected using Lipofectamine (Life Technologies, Carlsbad, Calif.) with 0.25 μg GRE-LUC, 0.010 μg CMV-LUC (renilla luciferase) and 25 ng of the AR. […] Luciferase assay was performed 48 hrs after transfection. Firefly luciferase assay values were normalized to renilla luciferase values and were graphed using graphpad prism software (La Jolla, Calif.). […] The IC50 or EC50 values were determined using non-linear regression and […] logistics fitting.

GR = GR (Homo sapiens (Human), UniProt P04150); test: GR antagonist assay (GRE-LUC luciferase, transfected COS-7 cells, with 0.1 nM dexamethasone); conditions: for IC50 / GR antagonist assay, % of vehicle: in the presence of 0.1 nM dexamethasone; for inhibition at 10 µM: COS-7, read-out: GR Antagonism % inhibition at 10 μM; for GR antagonist assay, % of vehicle: 10 μM
GR, sequence (P04150 whole entry): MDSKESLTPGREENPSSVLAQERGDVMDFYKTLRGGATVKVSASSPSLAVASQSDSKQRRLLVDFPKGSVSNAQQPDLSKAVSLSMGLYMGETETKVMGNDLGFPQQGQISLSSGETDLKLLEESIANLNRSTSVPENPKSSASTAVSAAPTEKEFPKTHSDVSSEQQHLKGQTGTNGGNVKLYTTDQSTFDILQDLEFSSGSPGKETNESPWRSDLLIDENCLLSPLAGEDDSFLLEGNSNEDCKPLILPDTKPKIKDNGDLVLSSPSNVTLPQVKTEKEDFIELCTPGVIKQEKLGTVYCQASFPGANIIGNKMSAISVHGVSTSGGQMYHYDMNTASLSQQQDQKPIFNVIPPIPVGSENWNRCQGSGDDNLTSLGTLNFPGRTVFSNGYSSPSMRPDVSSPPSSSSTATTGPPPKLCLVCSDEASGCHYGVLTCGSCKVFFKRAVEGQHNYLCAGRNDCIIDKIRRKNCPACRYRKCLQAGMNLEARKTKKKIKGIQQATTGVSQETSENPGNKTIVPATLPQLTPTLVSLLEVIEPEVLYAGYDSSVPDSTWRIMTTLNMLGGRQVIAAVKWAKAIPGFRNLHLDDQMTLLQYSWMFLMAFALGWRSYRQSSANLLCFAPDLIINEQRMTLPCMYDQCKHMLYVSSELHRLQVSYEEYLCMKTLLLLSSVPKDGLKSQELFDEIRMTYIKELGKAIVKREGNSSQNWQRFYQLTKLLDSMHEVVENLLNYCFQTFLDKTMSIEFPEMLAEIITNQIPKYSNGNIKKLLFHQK
Procedure: COS-7 cells (ATCC, Manassas, Va.) were plated in 24 well plates in DME+5% csFBS without phenol red at 70,000 cells/well. Once the cells attached to the plates (typically after overnight incubation after plating), they were transfected in OPTIMEM medium (Life Technologies) using lipofectamine reagent (Life Technologies) with 0.25 μg GRE-LUC, 25 ng pCR3.1 GR, and 10 ng CMV-renilla LUC per well. Twenty-four hours after transfection, the cells were fed with DME+5% csFBS without phenol red (Fisher Scientific, Waltham, Mass.) and treated with the test compounds (1 pM to 10 μM dose range) in the presence of 0.1 nM dexamethasone (Sigma, St. Louis, Mo.). Sixteen to twenty-four hours after treatment, a luciferase assay was performed using the Dual Luciferase assay kit (Promega, Madison, Wis.). Firefly luciferase values were normalized to Renilla luciferase numbers.

LNCaP-abl cells = test: Cell proliferation assay, LNCaP-abl (CellTiter-Glo); conditions: 72 h, 3 days; for activity at 3 µM: read-out: cell proliferation, % of vehicle at 3 μM; for activity at 10 µM: read-out: cell proliferation, % of vehicle at 10 μM
Procedure: LNCaP-abl (3,000 cells/well, received from Dr. Myles Brown, Dana Farber Cancer Institute), 22RV1 (1,000 cells/well), LNCaP (5,000 cells/well), or COS (3,000 cells/well) cells were plated in 96 well plates in 50 μl RPMI+10% FBS (Fisher Scientific, Waltham, Mass.). LNCaP, COS, and 22RV1 cells were obtained from ATCC. Cells were treated in RPMI+10% FBS with test articles, ranging from 1 nM to 10 μM. Three days later, viable cells (LNCaP-abl, 22RV1, and COS) were measured by CellTiter-Glo assay (Promega, Madison, Wis.). For LNCaP cells, medium containing test article was changed after 3 days of treatment, and after an additional 3 days of culture, viable cells were measured by CellTiter-Glo assay.
The LNCaP cell line is androgen responsive with AR and PSA expression. It contains a T877A mutation in the AR. The 22RV1 cell line is positive for AR and PSA with additional AR splice variants and is insensitive to androgen for cell proliferation. The LNCaP-abl cell line expresses both AR and GR but is insensitive to androgen for cell proliferation. COS-7 is used as an AR negative cell line in this experiment.

Human AR, sequence (P10275 whole entry): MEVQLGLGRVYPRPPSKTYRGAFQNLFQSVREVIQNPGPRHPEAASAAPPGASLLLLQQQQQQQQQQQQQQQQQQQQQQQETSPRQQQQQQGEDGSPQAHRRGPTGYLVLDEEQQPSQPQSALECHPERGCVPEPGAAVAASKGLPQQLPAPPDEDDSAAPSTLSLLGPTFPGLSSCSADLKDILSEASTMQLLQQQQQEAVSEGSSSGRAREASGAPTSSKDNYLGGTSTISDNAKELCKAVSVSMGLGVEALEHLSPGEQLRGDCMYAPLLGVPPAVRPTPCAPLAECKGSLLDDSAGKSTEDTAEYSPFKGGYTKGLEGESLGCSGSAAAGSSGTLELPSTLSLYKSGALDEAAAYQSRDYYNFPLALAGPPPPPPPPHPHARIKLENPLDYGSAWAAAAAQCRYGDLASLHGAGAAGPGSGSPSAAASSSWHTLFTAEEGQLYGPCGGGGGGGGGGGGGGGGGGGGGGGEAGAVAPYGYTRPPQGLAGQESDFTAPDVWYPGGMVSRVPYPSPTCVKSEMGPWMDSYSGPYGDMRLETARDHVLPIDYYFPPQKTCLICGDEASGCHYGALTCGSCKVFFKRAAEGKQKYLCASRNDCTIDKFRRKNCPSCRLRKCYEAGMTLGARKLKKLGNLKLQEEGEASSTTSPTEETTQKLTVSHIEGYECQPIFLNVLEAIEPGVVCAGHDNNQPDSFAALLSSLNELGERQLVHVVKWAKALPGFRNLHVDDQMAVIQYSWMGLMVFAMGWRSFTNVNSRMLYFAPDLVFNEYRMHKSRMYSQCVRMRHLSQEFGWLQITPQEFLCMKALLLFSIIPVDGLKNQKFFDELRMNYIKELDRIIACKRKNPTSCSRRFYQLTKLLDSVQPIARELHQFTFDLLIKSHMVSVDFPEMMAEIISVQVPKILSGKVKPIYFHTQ

Row | SMILES | IC50 (Human AR) | IC50 (GR) | inhibition at 10 µM (GR) | further results
1 | CC1(C)C(=O)N(c2ccc(C#N)c(C(F)(F)F)c2)C(=S)N1c1ccc(CNC(=O)c2nccs2)c(F)c1 [Compound 2] | 31 nM | > 10000 nM | – | activity at 3 µM (LNCaP-abl cells): 78%; activity at 10 µM (LNCaP-abl cells): 71%
2 | CC1(C)C(=O)N(c2ccc(C#N)c(C(F)(F)F)c2)C(=S)N1c1ccc(CNC(=O)c2ncc[nH]2)c(F)c1 [Compound 3] | 180 nM | > 10000 nM | – | –
3 | CC1(C)C(=O)N(c2ccc(C#N)c(C(F)(F)F)c2)C(=S)N1c1ccc(CNC(=O)c2cncs2)c(F)c1 [Compound 5] | 93 nM | > 10000 nM | – | activity at 3 µM (LNCaP-abl cells): 99%; activity at 10 µM (LNCaP-abl cells): 96%
4 | CC(C)C(=O)NCc1ccc(N2C(=S)N(c3ccc(C#N)c(C(F)(F)F)c3)C(=O)C2(C)C)cc1F [Compound 7] | 180 nM | > 10000 nM | – | activity at 3 µM (LNCaP-abl cells): 67%; activity at 10 µM (LNCaP-abl cells): 73%
5 | CC1(C)C(=O)N(c2ccc(C#N)c(C(F)(F)F)c2)C(=S)N1c1ccc(CNC(=O)C2CC2)c(F)c1 [Compound 11] | 120 nM | > 10000 nM | – | activity at 3 µM (LNCaP-abl cells): 103%; activity at 10 µM (LNCaP-abl cells): 79%
6 | CC1(C)C(=O)N(c2ccc(C#N)c(C(F)(F)F)c2)C(=S)N1c1ccc(CNC(=O)c2ccncn2)c(F)c1 [Compound 14] | – | – | 22% | –
7 | CC1(C)C(=O)N(c2ccc(C#N)c(C(F)(F)F)c2)C(=S)N1c1ccc(CNC(=O)c2cncnc2)c(F)c1 [Compound 15] | 320 nM | > 10000 nM | – | activity at 3 µM (LNCaP-abl cells): 81%; activity at 10 µM (LNCaP-abl cells): 70%
8 | CC(C)C(=O)NCc1ccc(N2C(=O)N(c3ccc(C#N)c(C(F)(F)F)c3)C(=O)C2(C)C)cc1F [Compound 20] | 1870 nM | > 10000 nM | – | –
9 | CC1(C)C(=O)N(c2ccc(C#N)c(C(F)(F)F)c2)C(=O)N1c1ccc(CNC(=O)c2ccccn2)c(F)c1 [Compound 23] | 180 nM | > 10000 nM | – | activity at 3 µM (LNCaP-abl cells): 84%; activity at 10 µM (LNCaP-abl cells): 43%
10 | CC1(C)C(=O)N(c2ccc(C#N)c(C(F)(F)F)c2)C(=O)N1c1ccc(CNC(=O)C2CC2)c(F)c1 [Compound 24] | 1090 nM | > 10000 nM | – | –
11 | CC1(C)C(=O)N(c2ccc(C#N)c(C(F)(F)F)c2)C(=S)N1c1ccc(CNC(=O)c2cncs2)c(Cl)c1 [Compound 25] | 99 nM | > 10000 nM | – | activity at 3 µM (LNCaP-abl cells): 96%; activity at 10 µM (LNCaP-abl cells): 64%
12 | CC1(C)C(=O)N(c2ccc(C#N)c(C(F)(F)F)c2)C(=O)N1c1ccc(CNC(=O)c2cncs2)cc1 [Compound 27] | 496 nM | > 10000 nM | – | –
13 | CC1(C)C(=O)N(c2ccc(C#N)c(C(F)(F)F)c2)C(=O)N1c1ccc(CNC(=O)c2cccnc2)c(F)c1 [Compound 29] | 910 nM | > 10000 nM | – | activity at 3 µM (LNCaP-abl cells): 90%; activity at 10 µM (LNCaP-abl cells): 92%
14 | CC1(C)C(=O)N(c2cnc(C#N)c(C(F)(F)F)c2)C(=S)N1c1ccc(CNC(=O)c2ncccn2)c(Cl)c1 [Compound 30] | 73 nM | > 10000 nM | – | –
15 | CC1(C)C(=O)N(c2ccc(C#N)c(C(F)(F)F)c2)C(=S)N1c1ccc(CNC(=O)c2ncccn2)c(Cl)c1 [Compound 31] | 62 nM | > 10000 nM | – | –
16 | Cc1ncsc1C(=O)NCc1ccc(N2C(=S)N(c3ccc(C#N)c(C(F)(F)F)c3)C(=O)C2(C)C)cc1Cl [Compound 32] | 120 nM | > 10000 nM | – | activity at 3 µM (LNCaP-abl cells): 93%; activity at 10 µM (LNCaP-abl cells): 62%
17 | CC1(C)C(=O)N(c2ccc(C#N)c(C(F)(F)F)c2)C(=O)N1c1ccc(CNC(=O)c2ncccn2)cc1 [Compound 33] | 304 nM | – | 3% | –
18 | CC1(C)C(=O)N(c2cnc(C#N)c(C(F)(F)F)c2)C(=S)N1c1ccc(CNC(=O)c2cncs2)c(Cl)c1 [Compound 36] | 580 nM | > 10000 nM | – | activity at 3 µM (LNCaP-abl cells): 82%; activity at 10 µM (LNCaP-abl cells): 59%
19 | Cc1cccnc1C(=O)NCc1ccc(N2C(=S)N(c3ccc(C#N)c(C(F)(F)F)c3)C(=O)C2(C)C)cc1F [Compound 40] | – | – | 48% | –

Row | SMILES | IC50 (Human AR) | IC50 (GR) | inhibition at 10 µM (GR) | further results
20 | CC1CC1C(=O)NCc1ccc(N2C(=S)N(c3ccc(C#N)c(C(F)(F)F)c3)C(=O)C2(C)C)cc1F (stereo not drawn) [Compound 41] | – | – | – | inhibition at 1 µM (Human AR): 88%
21 | Cc1ccccc1C(=O)NCc1ccc(N2C(=S)N(c3ccc(C#N)c(C(F)(F)F)c3)C(=O)C2(C)C)cc1F [Compound 43] | – | – | 0% | inhibition at 1 µM (Human AR): 94%
22 | CC1(C)C(=O)N(c2ccc(C#N)c(C(F)(F)F)c2)C(=S)N1c1ccc(CNC(=O)c2ccccc2F)c(F)c1 [Compound 47] | – | – | 46% | –
23 | CC1(C)C(=O)N(c2cnc(C#N)c(C(F)(F)F)c2)C(=S)N1c1ccc(CNC(=O)c2ccccn2)c(F)c1 [Compound 50] | – | – | – | inhibition at 10 µM (GR; 10 μM single concentration): 69%
24 | Cc1ncsc1C(=O)NCc1ccc(N2C(=S)N(c3cnc(C#N)c(C(F)(F)F)c3)C(=O)C2(C)C)cc1F [Compound 51] | – | – | – | inhibition at 1 µM (Human AR): 93%; inhibition at 10 µM (GR; 10 μM single concentration): 35%
25 | CC1(C(=O)NCc2ccc(N3C(=S)N(c4ccc(C#N)c(C(F)(F)F)c4)C(=O)C3(C)C)cc2F)CC1 [Compound 52] | – | – | 56% | –
26 | CC1(C)C(=O)N(c2ccc(C#N)c(C(F)(F)F)c2)C(=S)N1c1cnc(CNC(=O)c2ccccn2)c(F)c1 [Compound 53] | – | – | 66% | –
27 | CC1(C)C(=O)N(c2ccc(C#N)c(C(F)(F)F)c2)C(=S)N1c1ccc(CNC(=O)c2cocn2)c(F)c1 [Compound 54] | – | – | 56% | –
28 | Cc1ncsc1C(=O)NCc1ncc(N2C(=S)N(c3ccc(C#N)c(C(F)(F)F)c3)C(=O)C2(C)C)cc1F [Compound 55] | – | – | 58% | –
29 | Cc1nnc(C(=O)NCc2ccc(N3C(=S)N(c4ccc(C#N)c(C(F)(F)F)c4)C(=O)C3(C)C)cc2F)o1 [Compound 62] | – | – | 0% | –
30 | CN1CC(C(=O)NCc2ccc(N3C(=S)N(c4ccc(C#N)c(C(F)(F)F)c4)C(=O)C3(C)C)cc2F)C1 [Compound 63] | – | – | 0% | –
31 | CC1(C)C(=O)N(c2ccc(C#N)c(C(F)(F)F)c2)C(=S)N1c1ccc(CN2Cc3ncccc3C2=O)c(F)c1 [Compound 66, 4-(3-(3-fluoro-4-((5-oxo-5H-pyrrolo[3,4-b]pyridin-6(7H)-yl)methyl)phenyl)-4,4-dimethyl-5-oxo-2-thioxoimidazolidin-1-yl)-2-(trifluoromethyl)benzonitrile] | – | – | – | inhibition at 1 µM (Human AR): 90%; GR antagonist assay, % of vehicle (GR): 31%
32 | Cn1nccc1C(=O)NCc1ccc(N2C(=S)N(c3ccc(C#N)c(F)c3)C(=O)C2(C)C)cc1F [Compound 74] | – | – | – | inhibition at 10 µM (GR; 10 μM single concentration): 17%
33 | CC1(C)C(=O)N(c2ccc(C#N)c(C(F)(F)F)c2)C(=S)N1c1ccc(CNS(=O)(=O)c2ccccn2)c(F)c1 [Compound 75] | – | – | 40% | –
34 | CC1(C)C(=O)N(c2ccc(C#N)c(F)c2)C(=S)N1c1ccc(CN2Cc3ncccc3C2=O)c(F)c1 [Compound 78, 2-fluoro-4-(3-(3-fluoro-4-((5-oxo-5,7-dihydro-6H-pyrrolo[3,4-b]pyridin-6-yl)methyl)phenyl)-4,4-dimethyl-5-oxo-2-thioxoimidazolidin-1-yl)benzonitrile] | – | – | – | inhibition at 10 µM (GR; 10 μM single concentration): 0%
35 | CC1(C)C(=O)N(c2ccc(C#N)c(C(F)(F)F)c2)C(=S)N1c1ccc(CNC(=O)c2ccc3[nH]ncc3c2)c(F)c1 [Compound 79] | – | – | 75% | –
36 | CC1(C)C(=O)N(c2ccc(C#N)c(C(F)(F)F)c2)C(=S)N1c1ccc(CNC(=O)c2ccc3cn[nH]c3c2)c(F)c1 [Compound 80] | – | – | 38% | –
37 | CC#C[C@]1(O)CC[C@H]2[C@@H]3CCC4=CC(=O)CCC4=C3[C@@H](c3ccc(N(C)C)cc3)C[C@@]21C [RU486, reference compound] | – | – | – | GR antagonist assay, % of vehicle (GR): 13%; inhibition at 1 µM (GR; COS-7, read-out: GR antagonism inhibition at 1 μM): 72.8%

— patent US11292782B2, “Diarylhydantoin compounds and methods of use thereof” (Nuvation Bio Inc., priority 2018, dated 2022)
